Measurements as given in US6761898B1, “Combination composition in the form of nutritional supplement or pharmaceutical composition for the prevention and therapeutical treatment of degenerative or inflammatory articular disorders” (Sigma-Tau Industrie Farmaceutiche Riunite S.p.A., priority 1998, dated 2004).

What was measured:
[1] = test system: Type II collagen arthritis in mice; assay: Type II collagen arthritis tests; type: in vivo; conditions: injected from day one after collagen injection to end of sixth week, L-carnitine 50 and 100 mg/kg, glucosamine 100 and 200 mg/kg, chondroitin sulphate 50 and 100 mg/kg
Protocol: Type II collagen arthritis was induced in mice according to the technique described by Trentham (Trentham D. R., Townes A. S., Kang A. H., J. Exp. Med., 146, 857, 1977). One group of mice was immunised by means of intradermal injections of natural collagen emulsified in complete Freund's adjuvant (Difco Labs., Detroit, U.S.A.) at the base of the tail. Three weeks later these animals were re-injected intraperitoneally with the same dose of emulsified collagen. L-carnitine (50 mg/kg and 100 mg/kg), glucosamine (100 mg/kg and 200 mg/kg) and chondroitin sulphate (50 mg/kg and 100 mg/kg) were injected alone or in combination from day one after the collagen injection up to the end of the sixth week. One group of animals (control) received no treatment. The assessment of the severity of the oedema was done according to its intensity with scores ranging from 1 to 4. […] When L-carnitine was combined with either glucosamine or with chondroitin sulphate an approximately 50% reduction of arthrosis was obtained.

[2] = test system: carragenin-induced oedema in the rat; assay: Carragenin oedema tests; type: in vivo; conditions: for effect on severity of the carragenin-induced oedema: substance alone, 50, 100 and 200 mg/kg one hour prior to carragenin
Protocol: Carragenin oedema was induced in the rat by injection of 0.1 ml of a 1% carragenin solution (Sigma Chemical) in the subplantar region of the rat's right paw. The volume of the paw was measured by means of a mercury plethysmograph one hour later and over the 5-hour period following carragenin injection.
L-carnitine, glucosamine and chondroitin sulphate were administered one hour prior to carragenin injection, both alone and in combination at doses of 50, 100 and 200 mg/kg of these compounds.

[3] = dose 100 mg/kg (each substance), 2 hours
[4] = dose 100 mg/kg (each substance), 3 hours
[5] = dose 100 mg/kg (each substance), 4 hours
[6] = dose 200 mg/kg (each substance), 1 hour
[7] = dose 200 mg/kg (each substance), 2 hours
[8] = dose 200 mg/kg (each substance), 3 hours
[9] = dose 200 mg/kg (each substance), 4 hours

| Compound | inhibitory effect on the development of the typical signs of arthritis [1] | % Reduction of oedema at various hours after carragenin injection [2, 3] | % Reduction of oedema at various hours after carragenin injection [2, 4] | % Reduction of oedema at various hours after carragenin injection [2, 5] | % Reduction of oedema at various hours after carragenin injection [2, 6] | % Reduction of oedema at various hours after carragenin injection [2, 7] | % Reduction of oedema at various hours after carragenin injection [2, 8] | % Reduction of oedema at various hours after carragenin injection [2, 9] | effect on severity of the carragenin-induced oedema [2] | % Reduction of oedema at various hours after carragenin injection ([2]; dose 100 mg/kg (each substance), 1 hour) |
| --- | --- | --- | --- | --- | --- | --- | --- | --- | --- | --- |
| N[C@H]1C(O)O[C@H](CO)[C@@H](O)[C@@H]1O (some centres unmarked) [Glucosamine, glucosamine] | neither L-carnitine, glucosamine nor chondroitin sulphate when administered alone had any inhibitory effect | 5 ± 0.3% | 5 ± 0.5% | 5 ± 0.6% | 5 ± 0.2% | 10 ± 0.9% | 10 ± 1.1% | 5 ± 0.5% | failed to modify the severity |  |
| C[N+](C)(C)C[C@H](O)CC(=O)[O-] [L-carnitine] | neither L-carnitine, glucosamine nor chondroitin sulphate when administered alone had any inhibitory effect |  |  |  |  | 10 ± 0.2% | 5 ± 0.3% |  | failed to modify the severity |  |
| chondroitin sulphate | neither L-carnitine, glucosamine nor chondroitin sulphate when administered alone had any inhibitory effect | 10 ± 0.8% | 5 ± 0.4% | 5 ± 0.1% | 10 ± 1.9% | 15 ± 1.1% | 20 ± 1.8% | 10 ± 1.2% | failed to modify the severity | 10 ± 0.3% |
